Results reported in patent publication US8658697B2 (priority 2004, dated 2014).
Where two headings read alike, the source gives them in different places.

What was measured:
[1] = test system: Tacaribe virus (TRVL 11573); assay: microbe, parasite or virus in culture; type: cell-based; details: Mammarenavirus tacaribeense, Vero, read-out: Tacaribe EC50
Candide I = assay: microbe, parasite or virus in culture; type: cell-based, Junin virus (vaccine strain); details: Mammarenavirus juninense, read-out: Candide I
Tacaribe virus [2] = assay: microbe, parasite or virus in culture; type: cell-based; details: Mammarenavirus tacaribeense, Vero, 168 h, read-out: Tacaribe EC50
Candid-1 vaccine virus [3] = assay: microbe, parasite or virus in culture; type: cell-based, Junin virus (vaccine strain); details: Mammarenavirus juninense, Vero, 168 h, read-out: Candid 1 EC50
[4] = test system: Tacaribe pseudotyped virus; assay: microbe, parasite or virus in culture; type: cell-based; details: Mammarenavirus tacaribeense, read-out: EC50 vs. pseudotyped virus (μM) Tacaribe
[5] = test system: Guanarito pseudotyped virus; assay: microbe, parasite or virus in culture; type: cell-based; details: Mammarenavirus guanaritoense, read-out: EC50 vs. pseudotyped virus (μM) Guanarito
[6] = test system: Machupo pseudotyped virus; assay: microbe, parasite or virus in culture; type: cell-based; details: Mammarenavirus machupoense, read-out: EC50 vs. pseudotyped virus (μM) Machupo
[7] = test system: Pichinde pseudotyped virus; assay: microbe, parasite or virus in culture; type: cell-based; details: read-out: EC50 vs. pseudotyped virus (μM) Pichinde
VSV pseudotyped virus = assay: microbe, parasite or virus in culture; type: cell-based; details: Vesicular stomatitis virus, read-out: EC50 vs. pseudotyped virus (μM) VSV
Tacaribe virus [8] = type: cell-based; details: for EC50: read-out: Tacaribe (CPE) EC50
Tacaribe virus [9] = type: cell-based; details: read-out: Tacaribe (Plaque reduction) EC50
Machupo virus = type: cell-based; details: read-out: Machupo (Plaque reduction) EC50
Guanarito virus = type: cell-based; details: read-out: Guanarito (Plaque reduction) EC50
Junin virus = type: cell-based; details: read-out: Junin (Plaque reduction) EC50
Tacaribe virus [10] = test system: Tacaribe virus; design: species or system BALB/c mice; details: mouse, in vivo
[11] = test system: ST-336 drug resistant Tacaribe virus variants (DR#1-4); type: cell-based
[12] = test system: S. typhimurium tester strains TA7007, TA7006 and TA98
[13] = in vivo
[14] = in vivo, 10 mg/kg
[15] = mouse, in vivo, ip, 100 mg/kg/day
Candid-1 vaccine virus [16] = type: cell-based, Junin virus (vaccine strain); details: read-out: Candid1 (CPE) EC50
Amapari virus = type: cell-based; details: read-out: Amapari (CPE) EC50
Lassa virus = type: cell-based; details: read-out: Lassa (plaque reduction) EC50
LCMV = type: cell-based, lymphocytic choriomeningitis virus; details: read-out: LCMV (Elisa) EC50
HSV-1 = type: cell-based, herpes simplex virus 1; details: read-out: HSV-1 (CPE) EC50
CMV = type: cell-based, cytomegalovirus; details: read-out: CMV (Elisa) EC50
vaccinia virus = type: cell-based; details: read-out: Vaccinia (CPE) EC50
RSV-A = type: cell-based, Respiratory syncytial virus; details: read-out: RSV-A (CPE) EC50
Rotavirus = type: cell-based; details: read-out: Rotavirus (CPE) EC50
SARS-CoV = type: cell-based; details: read-out: SARS (CPE) EC50
Ebola virus = type: cell-based; details: read-out: Ebola (CPE) EC50
Tacaribe virus [17] = type: cell-based
intact Tacaribe virion [18] = type: binding, Tacaribe virus
intact Tacaribe virion [19] = type: binding, Tacaribe virus; remark: listed apart in the source
[20] = in vivo; remark: listed apart in the source
[21] = in vivo; cited from earlier work

## Cc1nn(C)c(Cl)c1S(=O)(=O)NNC(=O)NC(C)(C(F)(F)F)C(F)(F)F [Example 21, N-2-(1,1,1,3,3,3-Hexafluoro-2-methylpropyl)-2-[2-(5-chloro-1,3-dimethyl-1H-pyrazolyl)sulfonyl]hydrazine-1-carboxamide]
[1]
  EC50: 500 to 1000 nM
Candide I
  EC50: 1000 to 5000 nM

## CC(=O)c1ccc(S(=O)(=O)NNC(=O)NC(C)(C(F)(F)F)C(F)(F)F)cc1 [Example 39, N-2-(1,1,1,3,3,3-Hexafluoro-2-methylpropyl)-2-[(4-acetylphenyl)sulfonyl]hydrazine-1-carboxamide]
[1]
  EC50: 1000 to 5000 nM
Candide I
  EC50: > 5000 nM

## CCC(NC(=O)NNC(=O)c1ccc(-c2ccccc2)cc1)(C(F)(F)F)C(F)(F)F [Example 101, 2-(1,1′-biphenyl-4-ylcarbonyl)-N-[1,1-bis(trifluoromethyl)propyl] hydrazinecarboxamide]
Tacaribe virus [2]
  EC50: < 500 nM
Candid-1 vaccine virus [3]
  EC50: 1000 to 5000 nM
[4]
  EC50: < 0.5 µM
[5]
  EC50: < 0.5 µM
[6]
  EC50: < 0.5 µM
[7]
  EC50: 0.5 to 1 µM
VSV pseudotyped virus
  EC50: > 5 µM

## CCC(NC(=O)NNC(=O)c1cccc2ccccc12)(C(F)(F)F)C(F)(F)F [Example 102, N-[1,1-bis(trifluoromethyl)propyl]-2-(1-naphthoyl)hydrazinecarboxamide]
Tacaribe virus [2]
  EC50: < 500 nM
Candid-1 vaccine virus [3]
  EC50: > 5000 nM
[4]
  EC50: < 0.5 µM
[5]
  EC50: 1 to 5 µM
[6]
  EC50: < 0.5 µM
[7]
  EC50: 1 to 5 µM
VSV pseudotyped virus
  EC50: > 5 µM

## CCC(NC(=O)NNC(=O)c1ccccc1-c1ccccc1)(C(F)(F)F)C(F)(F)F [Example 103]
Tacaribe virus [2]
  EC50: 500 to 1000 nM
Candid-1 vaccine virus [3]
  EC50: 1000 to 5000 nM
[4]
  EC50: < 0.5 µM
[5]
  EC50: < 0.5 µM
[6]
  EC50: < 0.5 µM
[7]
  EC50: 1 to 5 µM
VSV pseudotyped virus
  EC50: > 5 µM

## CCC(NC(=O)NNC(=O)c1ccc(C)cc1)(C(F)(F)F)C(F)(F)F [Example 104, N-[1,1-bis(trifluoromethyl)propyl]-2-(4-methylbenzoyl)hydrazinecarboxamide]
Tacaribe virus [2]
  EC50: 500 to 1000 nM
Candid-1 vaccine virus [3]
  EC50: > 5000 nM
[4]
  EC50: < 0.5 µM
[5]
  EC50: < 0.5 µM
[6]
  EC50: < 0.5 µM
[7]
  EC50: 1 to 5 µM
VSV pseudotyped virus
  EC50: > 5 µM

## CCC(NC(=O)NNC(=O)c1ccc2ccccc2c1)(C(F)(F)F)C(F)(F)F [Example 105, N-[1,1-bis(trifluoromethyl)propyl]-2-(2-naphthoyl)hydrazinecarboxamide]
Tacaribe virus [2]
  EC50: < 500 nM
Candid-1 vaccine virus [3]
  EC50: 1000 to 5000 nM
[4]
  EC50: < 0.5 µM
[5]
  EC50: < 0.5 µM
[6]
  EC50: < 0.5 µM
[7]
  EC50: 1 to 5 µM
VSV pseudotyped virus
  EC50: > 5 µM

## CCC(NC(=O)NNC(=O)c1cc(OC)ccc1OC)(C(F)(F)F)C(F)(F)F [Example 106, N-[1,1-bis(trifluoromethyl)propyl]-2-(2,5-dimethoxybenzoyl)hydrazinecarboxamide]
Tacaribe virus [2]
  EC50: < 500 nM
Candid-1 vaccine virus [3]
  EC50: 1000 to 5000 nM
[4]
  EC50: < 0.5 µM
[5]
  EC50: < 0.5 µM
[6]
  EC50: < 0.5 µM
[7]
  EC50: > 5 µM
VSV pseudotyped virus
  EC50: > 5 µM

## CCC(NC(=O)NNC(=O)c1ccc(Cl)c(Cl)c1)(C(F)(F)F)C(F)(F)F [Example 107, N-[1,1-bis(trifluoromethyl)propyl]-2-(3,4-dichlorobenzoyl)hydrazinecarboxamide]
Tacaribe virus [2]
  EC50: 500 to 1000 nM
Candid-1 vaccine virus [3]
  EC50: 1000 to 5000 nM
[4]
  EC50: < 0.5 µM
[5]
  EC50: < 0.5 µM
[6]
  EC50: < 0.5 µM
[7]
  EC50: 1 to 5 µM
VSV pseudotyped virus
  EC50: > 5 µM

## CCC(NC(=O)NNC(=O)c1ccc(Br)cc1)(C(F)(F)F)C(F)(F)F [Example 108, N-[1,1-bis(trifluoromethyl)propyl]-2-(4-bromobenzoyl)hydrazinecarboxamide]
Tacaribe virus [2]
  EC50: 500 to 1000 nM
Candid-1 vaccine virus [3]
  EC50: 1000 to 5000 nM
[4]
  EC50: < 0.5 µM
[5]
  EC50: < 0.5 µM
[6]
  EC50: < 0.5 µM
[7]
  EC50: 1 to 5 µM
VSV pseudotyped virus
  EC50: > 5 µM

## CCC(NC(=O)NNC(=O)c1ccc(C(C)C)cc1)(C(F)(F)F)C(F)(F)F [Example 109, N-[1,1-bis(trifluoromethyl)propyl]-2-(4-isopropylbenzoyl)hydrazinecarboxamide]
Tacaribe virus [2]
  EC50: < 500 nM
Candid-1 vaccine virus [3]
  EC50: 1000 to 5000 nM
[4]
  EC50: < 0.5 µM
[5]
  EC50: < 0.5 µM
[6]
  EC50: < 0.5 µM
[7]
  EC50: > 5 µM
VSV pseudotyped virus
  EC50: > 5 µM

## CCC(NC(=O)NNC(=O)c1cc(C)cc(C)c1)(C(F)(F)F)C(F)(F)F [Example 110, N-[1,1-bis(trifluoromethyl)propyl]-2-(3,5-dimethylbenzoyl)hydrazinecarboxamide]
Tacaribe virus [2]
  EC50: < 500 nM
Candid-1 vaccine virus [3]
  EC50: 1000 to 5000 nM
[4]
  EC50: < 0.5 µM
[5]
  EC50: 0.5 to 1 µM
[6]
  EC50: < 0.5 µM
[7]
  EC50: 1 to 5 µM
VSV pseudotyped virus
  EC50: > 5 µM

## CCC(NC(=O)NNC(=O)c1cc(Cl)ccc1OC)(C(F)(F)F)C(F)(F)F [Example 112, N-[1,1-bis(trifluoromethyl)propyl]-2-(5-chloro-2-methoxybenzoyl)hydrazinecarboxamide]
Tacaribe virus [2]
  EC50: < 500 nM
Candid-1 vaccine virus [3]
  EC50: > 5000 nM
[4]
  EC50: < 0.5 µM
[5]
  EC50: < 0.5 µM
[6]
  EC50: < 0.5 µM
[7]
  EC50: 1 to 5 µM
VSV pseudotyped virus
  EC50: > 5 µM

## CC(NC(=O)NNS(=O)(=O)c1ccc(OC(F)F)cc1)(C(F)(F)F)C(F)(F)F [ST-294, N-2-(1,1,1,3,3,3-hexafluoro-1-methylpropyl)-2-[(4-difluoromethoxyphenyl)sulfonyl]hydrazine-1-carboxamide]
Tacaribe virus [8]
  in vitro antiviral concentration required to inhibit Tacaribe virus CPE (EC50): 0.066 µg/mL
  EC50: 120 nM
Tacaribe virus [9]
  EC50: 100 nM
Machupo virus
  EC50: 300 nM
Guanarito virus
  EC50: 1000 nM
Junin virus
  EC50: 300 nM
Tacaribe virus [10]
  efficacy (survival, delay in death): showed efficacy
[11]
  susceptibility of drug resistant Tacaribe mutants (DR#1-4): cross-resistance
Vero cells
  CC50: > 50000 nM
[12]
  Genotoxicity (Ames test): negative
[13]
  PK (rat/oral) ½ life: 2 h
[13]; rat, po
  Cmax (serum levels): 6670 ng/mL
[14]
  PK (newborn mouse/IP) Cmax: 2910 ng/mL
  PK (newborn mouse/IP) ½ life: 3 h
[15]
  tolerability: well tolerated

## CCC(NC(=O)NNS(=O)(=O)c1ccc(C)cc1)(C(F)(F)F)C(F)(F)F [ST-336]
Tacaribe virus [8]
  EC50: 55 nM
Tacaribe virus [8]; read-out: Tacaribe (CPE) EC90
  EC90: 125 nM
Tacaribe virus [9]
  EC50: 100 nM
Candid-1 vaccine virus [16]
  EC50: 62 nM
Amapari virus
  EC50: > 20000 nM
Machupo virus
  EC50: 150 nM
Guanarito virus
  EC50: 300 nM
Junin virus
  EC50: 150 nM
Lassa virus
  EC50: > 20000 nM
LCMV
  EC50: > 20000 nM
HSV-1
  EC50: > 20000 nM
CMV
  EC50: > 20000 nM
Vaccinia virus
  EC50: > 20000 nM
RSV-A
  EC50: > 20000 nM
Rotavirus
  EC50: > 20000 nM
SARS-CoV
  EC50: > 20000 nM
Ebola virus
  EC50: > 20000 nM
Tacaribe virus [17]
  effect on Tacaribe virus yield: no effect on virus yield
  effect on Tacaribe virus yield by time of addition: exerted its inhibitory effect only at the very early stage in the virus life cycle
Intact Tacaribe virion [18]
  binding to intact virus (serial dilution): binds with at least a slow Koff to intact protein present on Tacaribe virus
Intact Tacaribe virion [19]
  binding to intact virions (dialysis): binds intact virions with a very slow dissociation constant
[11]
  growth of ST-336 DR isolates in the presence of compound: unaffected
[20]
  pharmacokinetic (PK) properties in rodents: poor pharmacokinetic (PK) properties

## NC(=O)c1ncn([C@@H]2O[C@H](CO)[C@@H](O)[C@H]2O)n1 [ribavirin, Ribavirin]
[21]
  adverse effects: dose-related, reversible hemolytic anemia
